US10717981B2, “Therapeutic compositions and methods of making and using the same” (Advanced ReGen Medical Technologies, LLC, priority 2018, dated 2020)

Assays:
K562 = assay: Cell-mediated cytotoxicity assay, aged effector cells; type: cell-based; details: miRNA formulations in aged cells, vs control RNA
Protocol: Cell cytotoxicity was determined with the CFSE/7-AAD Cell Cytotoxicity Kit (Cayman Chemical) according to manufacturer's specified instructions. Briefly, the human chronic myelogenous leukemia cell line, K562, (ATCC # CCL-243) was used as target cells. 107 K562 cells were labeled for 15 min with CFSE dye, washed twice and diluted 100-fold for 30 min incubation at 37° C. Cells from 7-day isochronic or heterochronic cultures were used as effectors. Effector and target cells were added to 6-well plates at the following effector-to-target (E:T) ratios: 0:1, 6.25:1, 12.5:1 and 25:1, and cell mixtures incubated for 4 h at 37° C. Cells were harvested and counter-stained with 7-AAD. 50,000 events were acquired on the FACSCalibur flow cytometer, and data analyzed using BD CellQuest Pro™ software. Target cells incubated alone with 7-AAD served as control to calculate spontaneous lysis, while effector cells alone with 7-AAD served as control to detect dead effector cells. Percent lysis was calculated according the following formula: [(cells positive for both CFSE and 7-AAD/total CFSE-labeled cells)*100−spontaneous % lysis]. […]

aged cells = assay: Clonogenic assay (CFU-GM) of aged cells after miRNA mimic, siRNA or exosome treatment; type: cell-based, human; details: overexpression of candidate miRNAs in aged isochronic cultures, vs negative control RNA
Text: Aged TNCs (10×10^6 cells per sample) were nucleofected with microRNA mimics (Qiagen), miRNA inhibitors (Qiagen), negative control siRNA (Qiagen), negative control miRNA inhibitor (Qiagen) or downstream target candidate siRNAs (Origene) using the Amaxa P3 Primary Cell 4D-Nucleofector X Kit (Lonza) on a 4D Nucleofector device (Lonza), according to manufacturer's specific protocol. Briefly, for nucleofection of CD34+ cells used in clonogenic assays, cells were nucleofected with 60 nmol total miRNA mimics, miRNA inhibitors or siRNA using the “human CD34+ cell” program. For nucleofection of T cells used in T cell activation and cell-mediated cytotoxicity assays, cells were nucleofected with 240 nmol total miRNA mimics, miRNA inhibitors or siRNA using the “human unstimulated T cell, high functionality” program.

huNSG mice = system: huNSG mice
Protocol: T cell activation was determined using the T Cell Activation/Expansion Kit (Miltenyi). Briefly, anti-biotin MACSiBead Particles were loaded with CD2, CD3, and CD28 antibodies. Cells from 7-day isochronic or heterochronic cultures, or MNCs isolated from huNSG mouse blood by Ficoll-Hypaque density gradient, were incubated with loaded anti-biotin MACSiBead Particles at a 1:2 bead to cell ratio for 72 h to activate T cells. Addition of unloaded MACSiBead Particles served as negative control. After 72 h, cells were fluorescently labeled using CD45-FITC, CD4-PE, CD25-PerCP-Cy5.5 and CD8-APC to determine T cell activation status by flow cytometry.
5-week old, female NOD/scid IL2Rγnull (NSG) mice were purchased from Jackson Labs and housed in an AALAC-accredited facility at Rutgers, N.J. Medical School (Newark, N.J.). The protocol was approved by the Institutional Animal Care and Use Committee, Rutgers School of Biomedical Health Sciences (Newark, N.J.). Mice were acclimated in the Rutgers barrier animal facility for 1 week prior to experimental use. 6-week old mice were subjected to 150 cGy whole body gamma irradiation using a Mark-I cesium irradiator unit. 5 hours post-irradiation, mice were injected i.v. with 5×10^5 human CD34+ cells isolated from aged or young study donor Leukopaks. Engraftment proceeded over 15-19 weeks, with peripheral blood chimerism monitored at 9 and 13 weeks post-transplant. % Chimerism was detected by co-labeling blood with anti-human CD45-APC (HI30) and anti-mouse CD45-FITC (30-F11) for monitoring by flow cytometry. Humanized NSG (huNSG) enrolled in the treatment arm of the transwell-based animal study were given a 2nd i.v. injection of 5×10^5 autologous aged cells from 7-day isochronic (non-restored) or heterochronic (restored) cultures that were CD3-depleted (Miltenyi) prior to transplant, or saline control. The miRNA-based animal study was performed as above, except that the treatment arm utilized autologous aged cells transfected with 60 nmol total of either miR-619 alone, miR-combo (miR-619, -1303, 4497) or control RNA. Transfections utilized the HiPerFect reagent (Qiagen), and cells were transfected for a total of 7 days prior to CD3 depletion and i.v. injection as above. Mice were sacrificed at 14-15 weeks post-transplant, and blood, BM and speen harvested for biochemical, phenotypic and functional analyses. Major organs were also harvested for histological assessment. Tissue embedding, processing and staining were performed by the Digital Imaging and Histology Core of Rutgers-New Jersey Medical School Cancer Center (Newark, N.J.). Histologic findings were confirmed on H&E slides by a board-certified veterinary pathologist.
Detection of senescence associated secretory factors (SASFs) in plasma of huNSG mice was performed using Custom C-Series Human Antibody Arrays (Ray Biotech). Arrays were labeled with antibodies to 68 different factors linked to cellular senescence. Briefly, blood from huNSG mice was pelleted for 10 min at 300 g and plasma supernatant collected in siliconized microfuge tubes for SASF determination. […] Background levels were calculated by incubating the arrays with plasma from non-humanized NSG mice and then subtracting the obtained values from each huNSG sample.
For the T Cell Cytokine Array (Ray Biotech), conditioned media was collected from cells isolated from huNSG peripheral blood that were stimulated as per the T cell activation assay (see above) after 72 h and stored in protein lo-bind tubes. […] For both the custom SASF and T cell cytokine arrays, densitometry was performed using the UN-SCAN-IT densitometry software (Silk Scientific). Hierarchical clustering and heat map generation were perfomed with Heatmapper software.
BM from huNSG were flushed with a 26-gauge needle and collected for subsequent purification of engrafted human cells with the Mouse Cell Depletion Kit (Miltenyi).

Substance: miR-619: miRNA (miR-619-5p), GCUGGGAUUACAGGCAUGAGCC (chemistry not given here; listed as Homo sapiens)
- target lysis (cell-mediated cytotoxicity) (K562): significant increases
- aged colony formation (aged cells): significant effect
- SASFs decreased (68 factors linked to the SASP) (huNSG mice; blood plasma, 1.5-fold cutoff, vs control): 51.4%
- total SASF expression (huNSG mice; blood plasma, vs control): significant decreases
- mean overall survival (huNSG mice; mice receiving aged cells treated with miRNA, 15 weeks after 2nd transplant): 89%
- clonogenicity (huNSG mice; normalized to control, compared to heterochronic treatment): more robust
- huCD3+ cells in blood (huNSG mice; vs RNA control): increased
- huCD4+ cells in blood (huNSG mice; vs RNA control): significantly increased
- BM clonogenicity (huNSG mice; vs control): significantly increased
- huCD4+/CD8+ ratio in blood (huNSG mice; vs control): increased
- huCD8+ cells in blood (huNSG mice; vs control): decreased
- human chimerism in BM or blood (huNSG mice; vs control RNA): No significant difference
